Experiment: mn = molality of the nth substance listed, in mol/kg
Settings: 101 kPa, Liquid; for speed of sound: Sing-around technique in a fixed-path interferometer; for mass density: Vibrating tube method

CCCCn1cc[n+](C)c1.[Br-] [1-butyl-3-methylimidazolium bromide] + O
Settings	mass density, 288.15 K [kg/m3]	mass density, 293.15 K [kg/m3]	mass density, 298.15 K [kg/m3]	mass density, 303.15 K [kg/m3]	mass density, 308.15 K [kg/m3]	speed of sound, 288.15 K [m/s]	speed of sound, 293.15 K [m/s]	speed of sound, 298.15 K [m/s]	speed of sound, 303.15 K [m/s]	speed of sound, 308.15 K [m/s]
m1 = 0.0513	1001.7	1000.78	999.601	998.177	996.522	1472.8	1488.1	1501.8	1513.7	1524
m1 = 0.1034	1004.29	1003.33	1002.13	1000.67	998.994	1478.8	1493.6	1506.8	1518.3	1528.2
m1 = 0.1531	1006.73	1005.72	1004.51	1003.02	1001.34	1484.5	1498.7	1511.5	1522.5	1532
m1 = 0.2012	1009.09	1008.05	1006.79	1005.29	1003.58	1489.6	1503.7	1516	1526.6	1535.7
m1 = 0.2499	1011.45	1010.37	1009.06	1007.54	1005.82	1494.9	1508.5	1520.4	1530.7	1539.3
m1 = 0.2995	1013.81	1012.7	1011.38	1009.81	1008.07	1500.4	1513.5	1524.9	1534.6	1543
m1 = 0.35	1016.21	1015.02	1013.64	1012.1	1010.34	1505.5	1518.3	1529.3	1538.7	1546.7
m1 = 0.4008	1018.58	1017.37	1015.96	1014.35	1012.6	1510.9	1523	1533.6	1542.6	1550.2
m1 = 0.4565	1021.19	1019.89	1018.45	1016.8	1015.05	1516.4	1528.1	1538.2	1546.8	1554
m1 = 0.5012	1023.28	1021.91	1020.5	1018.75	1017.01	1520.9	1532.2	1542	1550.2	1557.1

— the NIST ThermoML archive (doi:10.1016/j.jct.2012.03.025)
